Results reported in patent US20220324835A1 (Nurix Therapeutics, Inc., priority 2018, published 2022).

What was measured:
[1] = biological target: T1, Cbl-b (Homo sapiens, UniProt Q13191); assay: Cbl-b inhibition assay (Cbl-b activity assay, FRET, Biological Example 1; 100 mM NaCl, 60 nM Src kinase); type: biochemical; settings: upper bound stated in text lists; read-out: IC50 values in the Cbl-b inhibition assay of Biological Example 1
Method in brief: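 Here, the E2 UbcH5B, irreversibly linked to Bodipy-fluorescein ubiquitin, binds Cbl-b once Src kinase phosphorylates it; Cbl-b carries an N-terminal biotinylated Avi-tag captured by streptavidin-terbium. An absent FRET signal indicates inhibition.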

[2] = tested on: T-cell; assay: IL-2 secretion from T-cells co-stimulated with anti-CD3 and anti-CD28 antibody (Biological Example 2); type: cell-based, human; settings: Homo sapiens, T-cell, read-out: IL-2 secretion Anti-CD3/Anti-CD28 stimulation; for fold induction at 0.3 µM: 0.3 μM Cbl-b inhibitor; for fold induction at 1 µM: 1 μM Cbl-b inhibitor; for fold induction at 4 µM: 4 μM Cbl-b inhibitor
Method in brief: (§1)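 T-cells were stimulated with anti-CD3 antibody alone or with anti-CD28 antibody, in the presence or absence of Cbl-b inhibitor. IL-2 secretion or CD25 surface staining was measured, and values expressed as fold over the uninhibited baseline […].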

[3] = tested on: T-cell; assay: CD25 cell surface staining on T-cells co-stimulated with anti-CD3 and anti-CD28 antibody (Biological Example 2); type: cell-based, human; settings: Homo sapiens, T-cell, read-out: CD25 staining Anti-CD3/Anti-CD28 stimulation; for fold induction at 0.3 µM: 0.3 μM Cbl-b inhibitor; for fold induction at 1 µM: 1 μM Cbl-b inhibitor; for fold induction at 4 µM: 4 μM Cbl-b inhibitor
Method in brief: as §1

[4] = biological target: T1, Cbl-b; assay: Cbl-b activity assay (Cbl-b inhibition assay), TR-FRET of Cbl-b interaction with UbcH5B-Ub; type: biochemical; settings: assay buffer with 100 mM NaCl, 60 nM Src kinase; read-out: Cbl-b activity IC50
Method in brief: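 UbcH5B (C85K) conjugated to N-terminally Bodipy-Fluorescein-labeled ubiquitin served as the fluorescent partner. After compound preincubation, Src kinase (60 nM) with 1 mM ATP and 5 mM MgCl2 (final) was added for 1.5 h, followed by a further 1 h incubation. Some values were obtained with 50 mM NaCl and 30 nM Src.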

[5] = biological target: Cbl-b (residues 36-427) (Homo sapiens, UniProt Q13191); assay: Cbl-b binding assay (SPR, Biacore T200); settings: 20° C., 1:1 binding model
Method in brief: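 Steps: capture protein on NeutrAvidin surface; inject compound dilutions (8 or 10 points from 100 or 50 μM) 50 s; allow 90-180 s dissociation; regenerate 20 s with 0.3 M NaCl. Runs at 20° C in HEPES pH 7.5/100 mM NaCl/2% DMSO; 1:1 fitting.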

[6] = fold change over baseline (anti-CD3/anti-CD28 stimulated T-cells without inhibitor)
[7] = fold change over baseline, primary human total T-cells

Cbl-b (residues 36-427), sequence (Q13191 36-427): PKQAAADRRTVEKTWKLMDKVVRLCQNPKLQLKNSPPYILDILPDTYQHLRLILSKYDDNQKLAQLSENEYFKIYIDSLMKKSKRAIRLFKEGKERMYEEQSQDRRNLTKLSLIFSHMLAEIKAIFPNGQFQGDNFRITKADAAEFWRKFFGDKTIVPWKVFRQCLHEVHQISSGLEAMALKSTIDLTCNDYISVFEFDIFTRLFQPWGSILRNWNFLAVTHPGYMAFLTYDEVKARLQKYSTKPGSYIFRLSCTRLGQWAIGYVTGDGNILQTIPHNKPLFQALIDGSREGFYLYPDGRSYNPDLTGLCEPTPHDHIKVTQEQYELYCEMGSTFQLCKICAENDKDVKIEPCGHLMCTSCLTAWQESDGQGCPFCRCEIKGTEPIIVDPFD
T1 sequence (Q13191 36-427): as above

Structure (SMILES)	IC50 [1] [µM]	fold induction at 0.3 µM [2, 6]	fold induction at 1 µM [2, 6]	fold induction at 0.3 µM [3, 6]	fold induction at 1 µM [3, 6]	IC50 [4] [µM]	Kd [5] [µM]	fold induction at 0.3 µM [2, 7]	fold induction at 1 µM [2, 7]	fold induction at 4 µM [2, 7]	fold induction at 0.3 µM [3, 7]	fold induction at 1 µM [3, 7]	fold induction at 4 µM [3, 7]
C[C@H](Cc1nncn1C)c1cc(-c2cn[nH]c2)nc(N2Cc3c(cccc3C(F)(F)F)C2=O)c1 [Example 684, (R)-2-(4-(1-(4-methyl-4H-1,2,4-triazol-3-yl)propan-2-yl)-6-(1H-pyrazol-4-yl)pyridin-2-yl)-4-(trifluoromethyl)isoindolin-1-one]	≤ 1	< 1	< 1	< 1	< 1	0.301 to 1	1 to 3	–	–	–	–	–	–
Cc1ccc(C(=O)Nc2cc([C@H](C)Sc3nncn3C)ccn2)nc1C1CC1 [Compound 113, (S)-6-cyclopropyl-5-methyl-N-(4-(1-((4-methyl-4H-1,2,4-triazol-3-yl)thio)ethyl)pyridin-2-yl)picolinamide]	≤ 1	–	–	–	–	0.301 to 1	1 to 3	2.51 to 5	2.51 to 5	5 to 7.5	< 1	< 1	1.01 to 1.3
C[C@H](Sc1nncn1C)c1cccc(NC(=O)c2cccc(S(C)(=O)=O)n2)c1 [Compound 80, (S)-N-(3-(1-((4-methyl-4H-1,2,4-triazol-3-yl)thio)ethyl)phenyl)-6-(methylsulfonyl)picolinamide]	≤ 10	–	–	–	–	1 to 3	3 to 10	< 1	1.01 to 2.5	1.01 to 2.5	1.01 to 1.3	1.01 to 1.3	1.01 to 1.3
Cc1ccc(C(=O)Nc2cccc(C(C)C(F)(F)c3nncn3C)c2)nc1C1CC1 (stereo not shown) [Compound 286, 6-cyclopropyl-N-(3-(1,1-difluoro-1-(4-methyl-4H-1,2,4-triazol-3-yl)propan-2-yl)phenyl)-5-methylpicolinamide]	≤ 0.5	–	–	–	–	0.1 to 0.3	0.301 to 1	1.01 to 2.5	1.01 to 2.5	2.51 to 5	< 1	< 1	1.01 to 1.3
Cc1cc(C)nc(C(=O)Nc2cccc([C@H](C)Sc3nncn3C)c2)c1 [Compound 56, (S)-4,6-dimethyl-N-(3-(1-((4-methyl-4H-1,2,4-triazol-3-yl)thio)ethyl)phenyl)picolinamide]	≤ 1	–	–	–	–	0.301 to 1	1 to 3	2.51 to 5	5 to 7.5	> 7.5	1.01 to 1.3	1.01 to 1.3	1.01 to 1.3
C[C@H](Cc1nncn1C)c1ccnc(NC(=O)c2cccc(C(F)(F)F)n2)c1 [Compound 302, (R)-N-(4-(1-(4-methyl-4H-1,2,4-triazol-3-yl)propan-2-yl)pyridin-2-yl)-6-(trifluoromethyl)picolinamide]	≤ 1	–	–	–	–	0.301 to 1	1 to 3	2.51 to 5	2.51 to 5	> 7.5	1.01 to 1.3	1.01 to 1.3	1.01 to 1.3
C[C@H](Cc1nncn1C)c1cc(F)cc(N2Cc3c(cccc3C(F)(F)F)C2=O)c1 [Compound 281a, 2-[3-Fluoro-5-[(1R)-1-methyl-2-(4-methyl-1,2,4-triazol-3-yl)ethyl]phenyl]-4-(trifluoromethyl)isoindolin-1-one]	≤ 0.5	–	–	–	–	0.1 to 0.3	0.1 to 0.3	1.01 to 2.5	1.01 to 2.5	2.51 to 5	1.01 to 1.3	1.01 to 1.3	1.31 to 1.5
